Source: ChEMBL document CHEMBL1201861, “Genomics of Drug Sensitity in Cancer screening data, Wellcome Trust Sanger Institute”

Tests used:
COR-L279 = experiment: SANGER: Inhibition of human COR-L279 cell growth in a cell viability assay.; assay type: functional, cell-based; details: Homo sapiens, COR-L279
SCC-3 = experiment: cells; assay type: functional, cell-based, Homo sapiens; details: Homo sapiens, SCC-3;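 note: cell viability assay measuring inhibition of SCC-3 cell growth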
Description: SANGER: Inhibition of human SCC-3 cell growth in a cell viability assay.

NB1 = experiment: cells; assay type: functional, cell-based, Homo sapiens; details: Homo sapiens, NB1;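 note: reduction of NB1 cell proliferation, read out with a viability assay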
Description: SANGER: Inhibition of human NB1 cell growth in a cell viability assay.

SCLC-21H = experiment: cells; assay type: functional, cell-based, Homo sapiens; details: Homo sapiens, SCLC-21H;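 note: growth inhibition of cultured human SCLC-21H cells, read out with a cell viability assay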
Description: SANGER: Inhibition of human SCLC-21H cell growth in a cell viability assay.

G-361 = experiment: cells; assay type: functional, cell-based, Homo sapiens; details: Homo sapiens, G-361
ARH-77 = experiment: cells; assay type: functional, cell-based, Homo sapiens; details: Homo sapiens, ARH-77;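 note: growth inhibition of ARH-77 cells, read out by a cell viability assay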
Description: SANGER: Inhibition of human ARH-77 cell growth in a cell viability assay.

MEL-HO = experiment: cells; assay type: functional, cell-based, Homo sapiens; details: Homo sapiens, MEL-HO
Description: SANGER: Inhibition of human MEL-HO cell growth in a cell viability assay.

SNU-423 = experiment: cells; assay type: functional, cell-based, Homo sapiens; details: Homo sapiens, SNU-423
Description: SANGER: Inhibition of human SNU-423 cell growth in a cell viability assay.

SW626 = experiment: cells; assay type: functional, cell-based, Homo sapiens; details: Homo sapiens, SW626;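 note: growth inhibition of SW626 cells, measured with a cell viability assay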
Description: SANGER: Inhibition of human SW626 cell growth in a cell viability assay.

KYSE-520 cell line = experiment: cells; assay type: functional, cell-based, Homo sapiens; details: Homo sapiens, KYSE-520;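 note: growth inhibition of human KYSE-520 cells, read out with a viability assay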
Description: SANGER: Inhibition of human KYSE-520 cell growth in a cell viability assay.

LP-1 = experiment: cells; assay type: functional, cell-based, Homo sapiens; details: Homo sapiens, LP-1;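 note: growth inhibition of human LP-1 cells, with the read-out taken from a cell viability assay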
Description: SANGER: Inhibition of human LP-1 cell growth in a cell viability assay.

M059J = experiment: cells; assay type: functional, cell-based, Homo sapiens; details: Homo sapiens, M059J;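 note: growth inhibition of M059J cells, read out with a cell viability assay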
Description: SANGER: Inhibition of human M059J cell growth in a cell viability assay.

ChaGo-K-1 = experiment: cells; assay type: functional, cell-based, Homo sapiens; details: Homo sapiens, ChaGo-K-1;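 note: growth inhibition of ChaGo-K-1 cells, read out with a cell viability assay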
Description: SANGER: Inhibition of human ChaGo-K-1 cell growth in a cell viability assay.

SK-OV-3 = experiment: cells; assay type: functional, cell-based, Homo sapiens; details: Homo sapiens, SK-OV-3;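 note: growth inhibition of SK-OV-3 human cells, read out with a cell viability assay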
Description: SANGER: Inhibition of human SK-OV-3 cell growth in a cell viability assay.

COLO-678 = experiment: cells; assay type: functional, cell-based, Homo sapiens; details: Homo sapiens, COLO-678
Description: SANGER: Inhibition of human COLO-678 cell growth in a cell viability assay.

LC4-1 = experiment: cells; assay type: functional, cell-based, Homo sapiens; details: Homo sapiens, LC4-1;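 note: growth inhibition of LC4-1 cells, read out with a cell viability assay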
Description: SANGER: Inhibition of human LC4-1 cell growth in a cell viability assay.

CHP-126 = experiment: cells; assay type: functional, cell-based, Homo sapiens; details: Homo sapiens, CHP-126
Description: SANGER: Inhibition of human CHP-126 cell growth in a cell viability assay.

NCI-H522 = experiment: cells; assay type: functional, cell-based, Homo sapiens; details: Homo sapiens, NCI-H522;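 note: cell viability assay measuring growth inhibition of human NCI-H522 cells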
Description: SANGER: Inhibition of human NCI-H522 cell growth in a cell viability assay.

NCI-H719 = experiment: cells; assay type: functional, cell-based, Homo sapiens; details: Homo sapiens, NCI-H719;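 note: growth inhibition of the cultured cell line, read out with a viability assay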
Description: SANGER: Inhibition of human NCI-H719 cell growth in a cell viability assay.

KYSE-70 cell line = experiment: cells; assay type: functional, cell-based, Homo sapiens; details: Homo sapiens, KYSE-70;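 note: cell viability assay read-out, with IC50 expressing suppression of KYSE-70 cell growth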
Description: SANGER: Inhibition of human KYSE-70 cell growth in a cell viability assay.

HPAF-II = experiment: cells; assay type: functional, cell-based, Homo sapiens; details: Homo sapiens, HPAF-II;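 note: growth inhibition of HPAF-II cells, read out with a cell viability assay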
Description: SANGER: Inhibition of human HPAF-II cell growth in a cell viability assay.

Daoy = experiment: cells; assay type: functional, cell-based, Homo sapiens; details: Homo sapiens, Daoy;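 note: daoy cell growth inhibition, read out as cell viability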
Description: SANGER: Inhibition of human Daoy cell growth in a cell viability assay.

KOSC-2 = experiment: cells; assay type: functional, cell-based, Homo sapiens; details: Homo sapiens, KOSC-2;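 note: growth inhibition of KOSC-2 cells, read out by a cell viability assay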
Description: SANGER: Inhibition of human KOSC-2 cell growth in a cell viability assay.

RL = experiment: cells; assay type: functional, cell-based, Homo sapiens; details: Homo sapiens, RL
Description: SANGER: Inhibition of human RL cell growth in a cell viability assay.

S-117 = experiment: cells; assay type: functional, cell-based, Homo sapiens; details: Homo sapiens, S-117
Description: SANGER: Inhibition of human S-117 cell growth in a cell viability assay.

NCI-H748 = experiment: cells; assay type: functional, cell-based, Homo sapiens; details: Homo sapiens, NCI-H748;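 note: growth inhibition of NCI-H748 cells, measured by a cell viability assay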
Description: SANGER: Inhibition of human NCI-H748 cell growth in a cell viability assay.

COLO-741 = experiment: cells; assay type: functional, cell-based, Homo sapiens; details: Homo sapiens, COLO-741
Description: SANGER: Inhibition of human COLO-741 cell growth in a cell viability assay.

OVCAR-8 = experiment: cells; assay type: functional, cell-based, Homo sapiens; details: Homo sapiens, OVCAR-8;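 note: growth inhibition of human OVCAR-8 cells, read out by a cell viability assay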
Description: SANGER: Inhibition of human OVCAR-8 cell growth in a cell viability assay.

YKG-1 = experiment: cells; assay type: functional, cell-based, Homo sapiens; details: Homo sapiens, YKG-1;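 note: cell growth inhibition, read out with a viability assay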
Description: SANGER: Inhibition of human YKG-1 cell growth in a cell viability assay.

Hs-578T = experiment: cells; assay type: functional, cell-based, Homo sapiens; details: Homo sapiens, Hs-578T
Description: SANGER: Inhibition of human Hs-578-T cell growth in a cell viability assay.

THP-1 = experiment: cells; assay type: functional, cell-based, Homo sapiens; details: Homo sapiens, THP-1;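 note: growth inhibition of THP-1 cells, read out via a cell viability assay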
Description: SANGER: Inhibition of human THP-1 cell growth in a cell viability assay.

PFSK-1 = experiment: cells; assay type: functional, cell-based, Homo sapiens; details: Homo sapiens, PFSK-1;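 note: cell viability assay measuring how strongly compounds suppress growth of human PFSK-1 cells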
Description: SANGER: Inhibition of human PFSK-1 cell growth in a cell viability assay.

NCI-H1651 = experiment: cells; assay type: functional, cell-based, Homo sapiens; details: Homo sapiens, NCI-H1651;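 note: Read-out is a cell viability assay, with IC50 expressing inhibition of NCI-H1651 cell growth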
Description: SANGER: Inhibition of human NCI-H1651 cell growth in a cell viability assay.

U-118-MG = experiment: cells; assay type: functional, cell-based, Homo sapiens; details: Homo sapiens, U-118-MG
Description: SANGER: Inhibition of human U-118-MG cell growth in a cell viability assay.

KYSE-180 = experiment: cells; assay type: functional, cell-based, Homo sapiens; details: Homo sapiens, KYSE-180;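 note: growth inhibition of KYSE-180 cells, read out with a cell viability assay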
Description: SANGER: Inhibition of human KYSE-180 cell growth in a cell viability assay.

SF-295 = experiment: cells; assay type: functional, cell-based, Homo sapiens; details: Homo sapiens, SF-295;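 note: growth inhibition of SF-295 cells, read out with a cell viability assay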
Description: SANGER: Inhibition of human SF295 cell growth in a cell viability assay.

NCI-H2196 = experiment: cells; assay type: functional, cell-based, Homo sapiens; details: Homo sapiens, NCI-H2196;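 note: cell viability assay used as the readout of growth inhibition in NCI-H2196 cells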
Description: SANGER: Inhibition of human NCI-H2196 cell growth in a cell viability assay.

HN = experiment: cells; assay type: functional, cell-based, Homo sapiens; details: Homo sapiens, HN
Description: SANGER: Inhibition of human HN cell growth in a cell viability assay.

TCC-SUP = experiment: cells; assay type: functional, cell-based, Homo sapiens; details: Homo sapiens, TCC-SUP;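 note: growth inhibition of TCC-SUP cells, read out with a cell viability assay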
Description: SANGER: Inhibition of human TCCSUP cell growth in a cell viability assay.

SNU-449 = experiment: cells; assay type: functional, cell-based, Homo sapiens; details: Homo sapiens, SNU-449
Description: SANGER: Inhibition of human SNU-449 cell growth in a cell viability assay.

SK-MEL-28 = experiment: cells; assay type: functional, cell-based, Homo sapiens; details: Homo sapiens, SK-MEL-28;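 note: growth inhibition of human SK-MEL-28 cells, read out with a cell viability assay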
Description: SANGER: Inhibition of human SK-MEL-28 cell growth in a cell viability assay.

NCI-H1755 = experiment: cells; assay type: functional, cell-based, Homo sapiens; details: Homo sapiens, NCI-H1755;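 note: cell viability readout used to measure growth inhibition of NCI-H1755 cells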
Description: SANGER: Inhibition of human NCI-H1755 cell growth in a cell viability assay.

647-V = experiment: cells; assay type: functional, cell-based, Homo sapiens; details: Homo sapiens, 647-V;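 note: growth inhibition of 647-V cells, read out with a cell viability assay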
Description: SANGER: Inhibition of human 647-V cell growth in a cell viability assay.

SUP-T1 = experiment: cells; assay type: functional, cell-based, Homo sapiens; details: Homo sapiens, SUP-T1;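 note: growth inhibition of human SUP-T1 cells, read out as cell viability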
Description: SANGER: Inhibition of human SUP-T1 cell growth in a cell viability assay.

HCT-116 = experiment: cells; assay type: functional, cell-based, Homo sapiens; details: Homo sapiens, HCT-116
Description: SANGER: Inhibition of human HCT-116 cell growth in a cell viability assay.

HCC1806 = experiment: cells; assay type: functional, cell-based, Homo sapiens; details: Homo sapiens, HCC1806;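 note: growth inhibition of the cancer cell line, determined with a cell viability assay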
Description: SANGER: Inhibition of human HCC1806 cell growth in a cell viability assay.

KYSE-510 = experiment: cells; assay type: functional, cell-based, Homo sapiens; details: Homo sapiens, KYSE-510;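 note: cell viability readout used to measure how strongly growth of the cell line is suppressed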
Description: SANGER: Inhibition of human KYSE-510 cell growth in a cell viability assay.

JIYOYE = experiment: cells; assay type: functional, cell-based, Homo sapiens; details: Homo sapiens, JIYOYE
Description: SANGER: Inhibition of human JiyoyeP-2003 cell growth in a cell viability assay.

O=C(O)c1ccc(-c2c[nH]c3ncc(-c4ccccc4)cc23)cc1C1CCCC1 [GSK-650394] showed an IC50 (COR-L279) greater than 16 µM, an IC50 (SCC-3) greater than 16 µM and an IC50 (NB1) greater than 16 µM. For the same compound, the IC50 (SCLC-21H) was greater than 16 µM, the IC50 (G-361) was 3.72 µM and the IC50 (ARH-77) was greater than 16 µM. The IC50 (MEL-HO) was greater than 16000 nM, the IC50 (SNU-423) was greater than 16 µM and the IC50 (SW626) was greater than 16 µM. It also gave an IC50 (KYSE-520 cell line) greater than 16 µM, an IC50 (LP-1) greater than 16 µM and an IC50 (M059J) greater than 16 µM. It also gave an IC50 (ChaGo-K-1) greater than 16 µM, an IC50 (SK-OV-3) greater than 16 µM and an IC50 (COLO-678) greater than 16 µM. The IC50 (LC4-1) was greater than 16 µM, the IC50 (CHP-126) was greater than 16 µM and the IC50 (NCI-H522) was 13 µM. For the same compound, the IC50 (NCI-H719) was greater than 16 µM, the IC50 (KYSE-70 cell line) was greater than 16 µM and the IC50 (HPAF-II) was greater than 16 µM. For the same compound, the IC50 (Daoy) was 515 nM, the IC50 (KOSC-2) was greater than 16 µM and the IC50 (RL) was greater than 16 µM. It also gave an IC50 (S-117) greater than 16 µM, an IC50 (NCI-H748) greater than 16 µM and an IC50 (COLO-741) greater than 16 µM. It also gave an IC50 (OVCAR-8) of 11.3 µM, an IC50 (YKG-1) of 7.39 µM and an IC50 (Hs-578T) greater than 16 µM. It also gave an IC50 (THP-1) greater than 16 µM, an IC50 (PFSK-1) greater than 16 µM and an IC50 (NCI-H1651) greater than 16 µM. For the same compound, the IC50 (U-118-MG) was greater than 16 µM, the IC50 (KYSE-180) was 2.06 µM and the IC50 (SF-295) was 7.6 µM. For the same compound, the IC50 (NCI-H2196) was greater than 16 µM, the IC50 (HN) was greater than 16 µM and the IC50 (TCC-SUP) was greater than 16 µM. The IC50 (SNU-449) was greater than 16 µM, the IC50 (SK-MEL-28) was greater than 16 µM and the IC50 (NCI-H1755) was greater than 16 µM. For the same compound, the IC50 (647-V) was greater than 16 µM, the IC50 (SUP-T1) was greater than 16 µM and the IC50 (HCT-116) was greater than 16 µM. For the same compound, the IC50 (HCC1806) was greater than 16 µM, the IC50 (KYSE-510) was 2130 nM and the IC50 (JIYOYE) was greater than 16 µM.
With C=C(c1ccc(C(=O)O)cc1)c1cc2c(cc1C)C(C)(C)CCC2(C)C [BEXAROTENE] the IC50 (COR-L279) was greater than 8 µM, the IC50 (SCC-3) was greater than 8 µM and the IC50 (NB1) was greater than 8 µM. For the same compound, the IC50 (SCLC-21H) was greater than 8 µM, the IC50 (G-361) was greater than 8 µM and the IC50 (ARH-77) was greater than 8 µM. It also gave an IC50 (MEL-HO) of 531 nM, an IC50 (SNU-423) greater than 8 µM and an IC50 (SW626) greater than 8 µM. For the same compound, the IC50 (KYSE-520 cell line) was greater than 8 µM, the IC50 (LP-1) was greater than 8 µM and the IC50 (M059J) was greater than 8 µM. It also gave an IC50 (ChaGo-K-1) greater than 8 µM, an IC50 (SK-OV-3) greater than 8 µM and an IC50 (COLO-678) greater than 8 µM. It also gave an IC50 (LC4-1) greater than 8 µM, an IC50 (CHP-126) greater than 8 µM and an IC50 (NCI-H522) greater than 8 µM. It also gave an IC50 (NCI-H719) greater than 8 µM, an IC50 (KYSE-70 cell line) greater than 8 µM and an IC50 (HPAF-II) greater than 8 µM. The IC50 (Daoy) was greater than 8000 nM, the IC50 (KOSC-2) was greater than 8 µM and the IC50 (RL) was greater than 8 µM. The IC50 (S-117) was greater than 8 µM, the IC50 (NCI-H748) was greater than 8 µM and the IC50 (COLO-741) was greater than 8 µM. For the same compound, the IC50 (OVCAR-8) was greater than 8 µM, the IC50 (YKG-1) was greater than 8 µM and the IC50 (Hs-578T) was greater than 8 µM. The IC50 (THP-1) was greater than 8 µM, the IC50 (PFSK-1) was greater than 8 µM and the IC50 (NCI-H1651) was greater than 8 µM. For the same compound, the IC50 (U-118-MG) was greater than 8 µM, the IC50 (KYSE-180) was 5.03 µM and the IC50 (SF-295) was 5.17 µM. It also gave an IC50 (NCI-H2196) greater than 8 µM, an IC50 (HN) greater than 8 µM and an IC50 (TCC-SUP) greater than 8 µM. The IC50 (SNU-449) was greater than 8 µM, the IC50 (SK-MEL-28) was greater than 8 µM and the IC50 (NCI-H1755) was greater than 8 µM. The IC50 (647-V) was greater than 8 µM, the IC50 (SUP-T1) was greater than 8 µM and the IC50 (HCT-116) was greater than 8 µM. For the same compound, the IC50 (HCC1806) was greater than 8 µM, the IC50 (KYSE-510) was greater than 8000 nM and the IC50 (JIYOYE) was greater than 8 µM.
